From ChEMBL document CHEMBL3885861, “Open TG-GATES”

Organism: Rattus norvegicus
Assay: Open TG-GATES - Regimen: Single
Type: toxicity, organism-based, Sprague-Dawley
Design: regimen Single, gender Male, age 6 weeks
Settings: in vivo, po, 5 mg/kg, route gavage; for TG / TP / gamma-GTP / A/G / ALP / ALT / AST / BUN / CRE / Ca / Cl / DBIL / GLC / IP / K / LDH / Na / PL / RALB / TBIL / TC: tissue Plasma; for APTT / Bas / Eos / Fbg / Hb / Ht / Lym / MCH / MCHC / MCV / Mono / Neu / PT / Plat / RBC / Ret / WBC: tissue Blood; for KIDNEY_L / KIDNEY_R / KIDNEY_TOTAL: tissue Kidney; for LIVER: tissue Liver

COc1ccc2c(c1)c(CC(=O)O)c(C)n2C(=O)c1ccc(Cl)cc1 [INDOMETHACIN]
TG (3 h, dose level Low): 59.6 mg/dL | TP (3 h, dose level Low): 5.4 g/dL | gamma-GTP (3 h, dose level Low): 1 IU/L | TERMINAL_BW (6 h, dose level High): 202.4 g | TERMINAL_BW (6 h, dose level Low): 222.1 g | APTT (6 h, dose level High): 16.9 s | Bas (6 h, dose level High): 0% | Eos (6 h, dose level High): 0.8% | Fbg (6 h, dose level High): 205.2 mg/dL | Hb (6 h, dose level High): 12.7 g/dL | Ht (6 h, dose level High): 38.6% | Lym (6 h, dose level High): 69.4% | MCH (6 h, dose level High): 21.3 pg | MCHC (6 h, dose level High): 32.8% | MCV (6 h, dose level High): 64.9 fL | Mono (6 h, dose level High): 13% | Neu (6 h, dose level High): 16.8% | PT (6 h, dose level High): 12.8 s | Plat (6 h, dose level High): 112.7 x10_4/uL | RBC (6 h, dose level High): 594.6 x10_4/ul | Ret (6 h, dose level High): 10.3% | WBC (6 h, dose level High): 87.2 x10_2/uL | APTT (6 h, dose level Low): 18.4 s | Eos (6 h, dose level Low): 0.4% | Fbg (6 h, dose level Low): 230 mg/dL | Hb (6 h, dose level Low): 13.9 g/dL | Ht (6 h, dose level Low): 38% | Lym (6 h, dose level Low): 79.6% | MCH (6 h, dose level Low): 22.6 pg | MCHC (6 h, dose level Low): 36.4% | MCV (6 h, dose level Low): 62 fL | Mono (6 h, dose level Low): 2.8% | Neu (6 h, dose level Low): 15.4% | PT (6 h, dose level Low): 12.4 s | Plat (6 h, dose level Low): 118.2 x10_4/uL | RBC (6 h, dose level Low): 613.2 x10_4/ul | Ret (6 h, dose level Low): 8% | WBC (6 h, dose level Low): 100.8 x10_2/uL | KIDNEY_L (6 h, dose level High): 0.9 g | KIDNEY_R (6 h, dose level High): 0.9 g | KIDNEY_TOTAL (6 h, dose level High): 1.9 g | KIDNEY_L (6 h, dose level Low): 1 g | KIDNEY_R (6 h, dose level Low): 1 g | LIVER (6 h, dose level High): 9 g | LIVER (6 h, dose level Low): 9.1 g | A/G (6 h, dose level High): 1.9 | ALP (6 h, dose level High): 908.6 IU/L | ALT (6 h, dose level High): 35.6 IU/L | AST (6 h, dose level High): 69 IU/L | BUN (6 h, dose level High): 13.6 mg/dL | CRE (6 h, dose level High): 0.5 mg/dL | Ca (6 h, dose level High): 10.2 mg/dL | Cl (6 h, dose level High): 108.2 meq/L | DBIL (6 h, dose level High): 0.014 mg/dL | GLC (6 h, dose level High): 194.8 mg/dL | IP (6 h, dose level High): 9.4 mg/dL | K (6 h, dose level High): 5.1 meq/L | LDH (6 h, dose level High): 186.4 IU/L | Na (6 h, dose level High): 137.4 meq/L | PL (6 h, dose level High): 120 mg/dL | RALB (6 h, dose level High): 3.8 g/dL | TBIL (6 h, dose level High): 0.3 mg/dL | TC (6 h, dose level High): 68.4 mg/dL | TG (6 h, dose level High): 48 mg/dL | TP (6 h, dose level High): 5.8 g/dL | gamma-GTP (6 h, dose level High): 1.2 IU/L | A/G (6 h, dose level Low): 1.5 | ALP (6 h, dose level Low): 938.4 IU/L | ALT (6 h, dose level Low): 36.2 IU/L | AST (6 h, dose level Low): 75.8 IU/L | BUN (6 h, dose level Low): 12 mg/dL | CRE (6 h, dose level Low): 0.4 mg/dL | Ca (6 h, dose level Low): 10.4 mg/dL | Cl (6 h, dose level Low): 103.2 meq/L | DBIL (6 h, dose level Low): 0.076 mg/dL | GLC (6 h, dose level Low): 197.2 mg/dL | IP (6 h, dose level Low): 9.2 mg/dL | K (6 h, dose level Low): 4 meq/L | LDH (6 h, dose level Low): 231 IU/L | Na (6 h, dose level Low): 140.8 meq/L | PL (6 h, dose level Low): 135.2 mg/dL | RALB (6 h, dose level Low): 3.3 g/dL | TBIL (6 h, dose level Low): 0.1 mg/dL | TC (6 h, dose level Low): 77.4 mg/dL | TG (6 h, dose level Low): 62.8 mg/dL | TP (6 h, dose level Low): 5.4 g/dL | gamma-GTP (6 h, dose level Low): 0.8 IU/L | TERMINAL_BW (9 h, dose level High): 198.4 g | TERMINAL_BW (9 h, dose level Low): 221 g | APTT (9 h, dose level High): 16.9 s | Bas (9 h, dose level High): 0% | Eos (9 h, dose level High): 0.6% | Fbg (9 h, dose level High): 213.6 mg/dL | Hb (9 h, dose level High): 13.2 g/dL | Ht (9 h, dose level High): 39.6% | Lym (9 h, dose level High): 84.2% | MCH (9 h, dose level High): 21.6 pg | MCHC (9 h, dose level High): 33.3% | MCV (9 h, dose level High): 65 fL | Mono (9 h, dose level High): 7.8% | Neu (9 h, dose level High): 7.4% | PT (9 h, dose level High): 12.6 s | Plat (9 h, dose level High): 102.6 x10_4/uL | RBC (9 h, dose level High): 609.4 x10_4/ul | Ret (9 h, dose level High): 9.6% | WBC (9 h, dose level High): 107 x10_2/uL | APTT (9 h, dose level Low): 18.2 s | Eos (9 h, dose level Low): 0.4% | Fbg (9 h, dose level Low): 228.6 mg/dL | Hb (9 h, dose level Low): 13.7 g/dL | Ht (9 h, dose level Low): 37.7% | Lym (9 h, dose level Low): 76.4% | MCH (9 h, dose level Low): 22.2 pg | MCHC (9 h, dose level Low): 36.4% | MCV (9 h, dose level Low): 60.8 fL | Mono (9 h, dose level Low): 3% | Neu (9 h, dose level Low): 18% | PT (9 h, dose level Low): 12.2 s | Plat (9 h, dose level Low): 126.8 x10_4/uL | RBC (9 h, dose level Low): 620.4 x10_4/ul | Ret (9 h, dose level Low): 7.9% | WBC (9 h, dose level Low): 86 x10_2/uL | KIDNEY_L (9 h, dose level High): 0.9 g | KIDNEY_R (9 h, dose level High): 0.9 g | KIDNEY_TOTAL (9 h, dose level High): 1.9 g | KIDNEY_R (9 h, dose level Low): 1 g | LIVER (9 h, dose level High): 8.1 g | LIVER (9 h, dose level Low): 8.6 g | A/G (9 h, dose level High): 2.5 | ALP (9 h, dose level High): 961.6 IU/L | ALT (9 h, dose level High): 34.6 IU/L | AST (9 h, dose level High): 66 IU/L | BUN (9 h, dose level High): 12.6 mg/dL | CRE (9 h, dose level High): 0.5 mg/dL | Ca (9 h, dose level High): 10.1 mg/dL | Cl (9 h, dose level High): 105.6 meq/L | DBIL (9 h, dose level High): 0.042 mg/dL | GLC (9 h, dose level High): 183.4 mg/dL | IP (9 h, dose level High): 9.8 mg/dL | K (9 h, dose level High): 5.3 meq/L | LDH (9 h, dose level High): 192.8 IU/L | Na (9 h, dose level High): 137.2 meq/L | PL (9 h, dose level High): 117 mg/dL | RALB (9 h, dose level High): 3.9 g/dL | TBIL (9 h, dose level High): 0.5 mg/dL | TC (9 h, dose level High): 65.6 mg/dL | TG (9 h, dose level High): 34.4 mg/dL | TP (9 h, dose level High): 5.4 g/dL
